Laboratory results reported in patent US20250144179A1, “PEPTIDE HORMONE TO PREVENT OR TREAT VASOSPASM, BRAIN INJURY OR CEREBRAL EDEMA” (UNIVERSITY OF FLORIDA RESEARCH FOUNDATION, INCORPORATED, priority 2022, published 2025).

Experiments:
Format in all cases: in vivo, mouse
occludin = test: Western blot of occludin in brain after SAH; conditions: wild-type mice, adropin 450 nmol/kg i.p. vs vehicle
Protocol: (§1) Synthetic adropin^34-76 peptide was supplied from Bachem (Bubendorf, Switzerland) and diluted in 0.1% BSA in saline. 0.1% BSA in saline was used as vehicle control for all experiments. Adropin (450 nmol/kg) or an equivalent volume of vehicle was delivered via intraperitoneal injection 15 minutes post-SAH. For experiments ending at 24 hours post-SAH, an identical dose of adropin/vehicle was given again 12 hours later. For experiments ending 7 days post-SAH, adropin/vehicle was given again on days 1, 3 & 5 post-SAH. In the aneurysm rupture model, adropin was given at a dose of 450 nmol/kg starting 3 days before aneurysm induction (elastase injection). Adropin was given every other day until sacrifice
(§2) SAH was modeled using the anterior circulation single autologous blood injection method^25,33 with minor adjustments. Mice were anesthetized with ketamine (100 mg/kg) and xylazine (10 mg/kg) before removing hair from scalp and cleaning with serial betadine—saline washes. The tail was also prepped from the base extending 1 cm distally. Mice were then fixed into a stereotaxic frame and body temperature maintained at 37° C. The scalp was incised along the sagittal suture from bregma to the nasal bone. […]
At 24 hours or 7 days post-SAH, mice were deeply anesthetized and perfused with 10 mL of ice-cold PBS. […] Samples were centrifuged, supernatant collected, and protein quantified via Bradford assay. […]

[1] = tested on: wild-type mice, SAH model; test: Brain water content (cerebral edema) after SAH; conditions: 24 hours post-SAH, adropin 450 nmol/kg i.p.
Protocol: as §1
as §2, with “C.” for “C. The scalp was incised along the sagittal suture from bregma to the nasal bone.”
Brain water content was measured using the wet weight—dry weight method.^34 Twenty-four hours post-SAH, brains were removed from the skull and the olfactory lobe and hindbrain were removed from the cortex and midbrain. […]

[2] = tested on: wild-type mice, SAH model; test: Cerebral blood flow by laser speckle contrast imaging after SAH; conditions: day 1 post-SAH, adropin 450 nmol/kg i.p.
Protocol: as §1
as §2, with “C.” for “C. The scalp was incised along the sagittal suture from bregma to the nasal bone.”
One day post-SAH, animals were anesthetized with ketamine/xylazine as described above, placed in a supine position in a stereotaxic frame. […] Blood flow (perfusion) values are calculated using PIMsoft software (PeriMed AB, Stockholm, Sweden) as arbitrary “perfusion units”. […]

[3] = tested on: wild-type mice, SAH model; test: Corner-turn preference test (sensorimotor deficits) after SAH
Protocol: as §1, with “Adropin (450 nmol/kg) or an equivalent volume of vehicle was delivered via intraperitoneal injection 15 minutes post-SAH.” left out
as §2, with “bone. The skin was reflected and a burr hole was drilled 5.0 mm rostral of bregma and 0.5 mm right laterally to avoid puncturing dural venous sinuses.” for “bone.”

eNOS = test: Western blot of total eNOS and p-eNOS (Ser1179) in brain after SAH
Protocol: as §1
SAH was modeled using the anterior circulation single autologous blood injection method^25,33 with minor adjustments. Mice were anesthetized with ketamine (100 mg/kg) and xylazine (10 mg/kg) before removing hair from scalp and cleaning with serial betadine—saline washes. The tail was also prepped from the base extending 1 cm distally. Mice were then fixed into a stereotaxic frame and body temperature maintained at 37° C. The scalp was incised along the sagittal suture from bregma to the nasal bone. The skin was reflected and a burr hole was drilled 5.0 mm rostral of bregma and 0.5 mm right laterally to avoid puncturing dural venous sinuses. […] 50 μL of blood was drawn into a Hamilton syringe (Hamilton, Reno, Nevada) and passed through the cranial burr hole at an angle of 30° caudally until contact with the skull base (approximately 7.2 mm). The syringe was left in place for 30 seconds to allow for tissue accommodation before blood was manually injected at a rate of 10 μL/minute. After blood injection was complete, the syringe was left in place for an additional 3 minutes and then retracted slowly at a rate of 10 mm/minute. Sham surgery was the identical procedure and timing including placement of the stereotactic needle but without blood injection. After the needle and syringe were removed, the burr hole was covered and skin flap was sutured with 5-0 ethilon suture.
At 24 hours or 7 days post-SAH, mice were deeply anesthetized and perfused with 10 mL of ice-cold PBS. Brains were harvested from the skull and placed into a cold brain matrix (Harvard Apparatus, Holliston, Massachusetts). The olfactory lobe was removed, and brains were cut in half along the mid-sagittal plane. The right hemisphere was cut again 2 mm caudally from the rostral edge and the pieces of tissue were snap frozen in liquid N2. Once all tissue samples were collected, brains were homogenized with a Dounce homogenizer and incubated in radioimmunoprecipitation assay (RIPA) buffer at 4° C. for 90 minutes with constant agitation. Samples were centrifuged, supernatant collected, and protein quantified via Bradford assay. Samples were then frozen at −20° C. or used immediately. 30 μg of total protein was separated electrophoretically through a 4-15% tris-glycine gel at 90V for 60 minutes and transferred onto nitrocellulose membranes with 0.45 μm pore size. Membranes were blocked with 5% skim milk in TBST (5% BSA for phospho-eNOS blots) for 1 hours at room temperature and then probed with specified primary antibodies (Table 1) diluted in 5% skim milk (5% BSA for phospho-eNOS) overnight at 4° C. with constant agitation. […]

In the case of “adropin (CHSRSADVDSLSESSPNSSPGPCPEKAPPPQKPSHEGSYLLQP) [Synthetic adropin^34-76 peptide from Bachem]”, the “occludin expression (immunoblot)” value (occludin) is reported as “preserved the expression of occludin”, the “brain water content (cerebral edema)” value [1] is reported as “this effect was blunted by adropin treatment” and the “cerebral blood flow (CBF), perfusion” value [2] is reported as “adropin treatment restored CBF back to baseline”. The sensorimotor deficits ([3]; treatment initiated at 24 hours post-SAH) was “ability of adropin treatment to improve sensorimotor deficits was maintained”, the “corner turn preference (sensorimotor deficit)” value ([3]; up to one week post-SAH, treatment started 15 minutes post-SAH) was “reducing this sensorimotor deficit and normalizing corner turn preference” and the phospho-eNOS levels (eNOS; 7 day post-SAH) was “adropin treatment increase phospho-eNOS levels”. The “total eNOS” value (eNOS; 7 day post-SAH) was “slightly increased in both SAH groups; however, neither reached statistical significance”, the Phospho-eNOS/eNOS ratio (eNOS; 7 day post-SAH, p=0.08 vs SAH+vehicle, p=0.08 vs sham+vehicle) was “trended higher with adropin treatment” and the “p-eNOS/total eNOS ratio” value (eNOS; one day post-SAH) was “no change in p-eNOS/total eNOS ratios between any groups”. The “eNOS phosphorylation (Ser1179)” value (eNOS; one day post-SAH, vs SAH+vehicle) was “increased eNOS phosphorylation one day post-SAH”.
